Data on 11 molecules can be found in PubChem BioAssay (NCI).

Test systems include SNB-19 CNS; SR leukemia; A549 NSCLC; UACC-62 melanoma; UACC-257 melanoma; PC-3 prostate; SW-620 colon; CAKI-1 renal; TK-10 renal; RPMI-8226 leukemia; RXF 393 renal; MCF7 breast; SK-MEL-28 melanoma.
What all share (experiment): growth of human tumour cells (NCI), 48 h

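A five-concentration, 48-hour dose response in 96-well plates underlies each endpoint, interpolated linearly between surrounding concentrations. At the TGI there is no net growth.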

Take `CC(=O)O[C@H]1C(=O)[C@@]2(C)C(C(OC(=O)c3ccccc3)[C@]3(O)CC(OC(=O)C(O)C(NC(=O)c4ccccc4)c4ccc(F)cc4)C(C)=C1C3(C)C)[C@]1(OC(C)=O)CO[C@@H]1C[C@@H]2O` (some centres not stated): the TGI in the assay on SNB-19 CNS was over 10 µM; in the assay with SR leukemia, over 3.82 µM; with A549 NSCLC, over 10 µM; in the assay with UACC-62 melanoma it was over 10 µM; with UACC-257 melanoma it was over 10 µM; in the assay with PC-3 prostate it was over 10 µM. Also, the TGI in the assay on SW-620 colon was over 10 µM; in the assay on CAKI-1 renal, over 10 µM; with TK-10 renal, over 10 µM; in the assay with RPMI-8226 leukemia, 2.09 µM; in the assay with RXF 393 renal, 0.0187 µM; in the assay on MCF7 breast, over 10 µM.
With `CC(=O)N1NC(c2ccccc2)=CC(=O)/C1=C/C(=O)c1ccccc1`, the TGI is over 100 µM in the assay on SK-MEL-28 melanoma; over 100 µM with SNB-19 CNS; 57.8 µM with SR leukemia; over 100 µM in the assay on A549 NSCLC; over 100 µM with UACC-62 melanoma; over 100 µM in the assay with UACC-257 melanoma. The TGI is over 100 µM in the assay with PC-3 prostate; over 100 µM with CAKI-1 renal; over 100 µM in the assay on TK-10 renal; over 100 µM in the assay on RPMI-8226 leukemia; 83 µM in the assay on RXF 393 renal; over 100 µM in the assay on MCF7 breast.
As for `CCOC(=O)/C(C#N)=C(/NS(=O)(=O)c1cc(C)c(Cl)cc1[S-])[n+]1ccc(N(C)C)cc1`, the TGI in the assay with SK-MEL-28 melanoma, with SNB-19 CNS, with SR leukemia, with A549 NSCLC, with UACC-62 melanoma and in the assay with UACC-257 melanoma was over 100 µM throughout. For the same molecule, the TGI with PC-3 prostate, in the assay with CAKI-1 renal, in the assay on TK-10 renal, with RPMI-8226 leukemia, in the assay on RXF 393 renal and in the assay with MCF7 breast was over 100 µM in each case.
With `c1ccc(COCC23CCN(Cc4ccccc4)C(CC(OCc4ccccc4)C2)S3)cc1` (configuration not stated), the TGI with SK-MEL-28 melanoma was over 100 µM; in the assay with SNB-19 CNS, over 100 µM; in the assay on SR leukemia it was 63.7 µM; in the assay on A549 NSCLC it was over 100 µM; in the assay with UACC-62 melanoma, over 100 µM; in the assay on UACC-257 melanoma, over 100 µM. Moreover, the TGI is over 100 µM in the assay on PC-3 prostate; over 100 µM in the assay with SW-620 colon; over 100 µM in the assay on CAKI-1 renal; over 100 µM with RPMI-8226 leukemia; over 100 µM with RXF 393 renal; 59.9 µM with MCF7 breast.
`O=C(O)C(Cc1ccc(O)cn1)NC(=O)C(F)(F)F` (configuration not stated): the TGI with SK-MEL-28 melanoma, in the assay on SNB-19 CNS, with SR leukemia, with A549 NSCLC, with UACC-257 melanoma and in the assay on PC-3 prostate was over 100 µM throughout. The TGI with SW-620 colon, in the assay on CAKI-1 renal, with TK-10 renal, in the assay on RPMI-8226 leukemia, in the assay with RXF 393 renal and in the assay with MCF7 breast was over 100 µM in each case.
Consider `CC1(C)C(O)c2ccccc2OC1N1CCN(C2Oc3ccccc3C(O)C2(C)C)CC1` (configuration not stated), for which the TGI with SK-MEL-28 melanoma, with SNB-19 CNS, with SR leukemia, in the assay with A549 NSCLC, in the assay with UACC-62 melanoma and in the assay with UACC-257 melanoma was over 100 µM in each case. The TGI in the assay on PC-3 prostate, with SW-620 colon, in the assay on CAKI-1 renal, in the assay on RPMI-8226 leukemia, in the assay with RXF 393 renal and with MCF7 breast was over 100 µM each time.
In the case of `O=C1CC2[C@@H](N3CCCC3)CCC(N1Cc1ccccc1)C2(O)O` (some centres not stated), the TGI in the assay with SK-MEL-28 melanoma, in the assay on SNB-19 CNS, with SR leukemia, in the assay on A549 NSCLC, in the assay with UACC-62 melanoma and in the assay on UACC-257 melanoma was over 100 µM each time. For the same molecule, the TGI with PC-3 prostate, in the assay with SW-620 colon, in the assay on CAKI-1 renal, in the assay on TK-10 renal, with RXF 393 renal and in the assay with MCF7 breast was over 100 µM in each case.
For `COc1ccc(C)c2c1N[C@](C)([C@]1(C)Nc3c(OC)ccc(C)c3C1=O)C2=O`, the TGI with SK-MEL-28 melanoma, with SNB-19 CNS, with SR leukemia, in the assay with A549 NSCLC, with UACC-62 melanoma and in the assay on UACC-257 melanoma was over 100 µM in each case. In addition, the TGI with PC-3 prostate, with SW-620 colon, in the assay with CAKI-1 renal, with RPMI-8226 leukemia, in the assay on RXF 393 renal and in the assay on MCF7 breast was over 100 µM throughout.
With `COC(=O)c1cc(C#N)[nH]c1-c1ccsc1`, the TGI with SK-MEL-28 melanoma, in the assay on SR leukemia, in the assay with A549 NSCLC, in the assay on UACC-62 melanoma, with UACC-257 melanoma and with PC-3 prostate was over 100 µM throughout. The TGI in the assay on SW-620 colon, with CAKI-1 renal, with TK-10 renal, in the assay on RPMI-8226 leukemia, in the assay on RXF 393 renal and with MCF7 breast was over 100 µM in each case.
Consider `CCCSc1cc(Cl)c(C)cc1S(=O)(=O)n1cc[nH]c1=O`, for which the TGI in the assay on SK-MEL-28 melanoma, in the assay with SNB-19 CNS, in the assay on SR leukemia, with A549 NSCLC, in the assay with UACC-62 melanoma and with UACC-257 melanoma was over 100 µM throughout. For the same molecule, the TGI with PC-3 prostate, in the assay on SW-620 colon, in the assay on CAKI-1 renal, in the assay on TK-10 renal, in the assay on RXF 393 renal and in the assay on MCF7 breast was over 100 µM in each case.
With `CC(=O)C1(c2ccccc2)CCN(Cn2sc3nc(C)cc(C)c3c2=O)CC1`, the TGI was 93.1 µM with SK-MEL-28 melanoma; over 100 µM in the assay with SNB-19 CNS; over 100 µM in the assay with SR leukemia; over 100 µM in the assay with A549 NSCLC; over 100 µM with UACC-62 melanoma; over 100 µM in the assay with PC-3 prostate. Besides, the TGI in the assay with SW-620 colon is over 100 µM; in the assay with CAKI-1 renal, over 100 µM; in the assay with TK-10 renal it was 36.1 µM; in the assay on RPMI-8226 leukemia, over 100 µM; in the assay with RXF 393 renal, 39.3 µM; with MCF7 breast it was over 100 µM.
